From article PMC7607171, “Optimized low‐dose combinatorial drug treatment boosts selectivity and efficacy of colorectal carcinoma treatment” (Molecular Oncology, 2020)
Values joined by “and” are separate entries in the source; they are usually repeats but may differ in a detail not shown here. Equal values may be shown once.

Columns and labels:
[1] = Pharmacokinetics, dried blood spot LC-MS/MS, mice with DLD1 tumors; type: in vivo; conditions: for Tmax / AUC(0-t) / Cmax: Swiss Nu/nu, mouse, whole blood (dried blood spot), po, regorafenib 15, erlotinib 12.5, selumetinib 5, vemurafenib 75 mg/kg; for AUC(0-t) / Cmax: whole blood, mean ± SD; for AUC(0-t): oral, read-out: AUC0-24h; for increase of AUC as part of the ODC vs single-drug treatment: mice with DLD1 tumors, AUC0-24h
Method: (§1) The pharmacokinetic (PK) study was performed using the dried blood spot method. Mice were treated with CTRL, ODCs, and corresponding monotherapies as described above. To determine the disposition in blood in the first 24h, blood samples (5 µL/mouse) were collected from the tail vein (n = 4 mice) at 2h, 4h, 8h, and 24h time points and transferred onto paper (a filter paper 903 protein saver card from Whatman (MA, USA)). A disk with the entire spot was punched from the paper card and transferred to the HPLC vial tube. Hundred µL of MeOH containing a mix of internal standards was added, and the tube was vortex‐mixed for about 1 min before injecting 10 µL into the LC‐MS/MS system. The LC‐MS/MS system consisted of an API 4,000 triple quadrupole mass spectrometer (AB sciex, Concord, ON, Canada) controlled by analyst 1.6.1 software. The mass spectrometer was operated in the multiple reaction monitoring (MRM) mode with positive electrospray ionization. The instrument was coupled with an Agilent series 1100 (Waldbronn, Germany) LC system. Chromatography was performed on a Phenomenex Kinetex C18 analytical column (50 mm x 2.1 mm, 2.6 um; Torrance, CA, USA). The flow rate was 0.5 mL/min using gradient elution conditions. The method was fully validated before application to this pharmacokinetic study.

[2] = Serum and intratumor drug concentration at experimental endpoint, SW620 model; type: in vivo, mice; conditions: for concentration at 1 h / Kp at 1 h: Swiss Nu/nu, mouse, oral; for concentration at 1 h: 1h post-treatment at endpoint (day 19); for Kp at 1 h: tumor vs serum, read-out: ratio tumor vs serum; for Kp at 1 h / ratio ODC vs single drug: SW620 model
Method: (§2) At the experimental endpoint, plasma and tumors were collected 1h post‐treatment and part of the tumor tissue was used to determine the intratumor drug concentrations. Plasma and tumor samples were analyzed using the same LC‐MS/MS method used for drug determination in DBS. Before analysis, tumor tissues were homogenized in a 1 mL mixture of water/acetonitrile (30/70). Hundred uL of homogenates were transferred into new tubes and 50 µL of acetonitrile, as well as 50 µL of a mix of internal standards in MeOH were added. Tubes were vortexed and centrifuged for 10 min at 9,000 rpm. The supernatant (100 µL) was evaporated under nitrogen and reconstituted in 100 µL of acetonitrile with 0.1% formic acid/water with 0.1% formic acid (30/70). 10 µL was then injected into the LC‐MS/MS system. Plasma samples were spotted onto the same paper used for whole blood analysis and were extracted and analyzed using the same methods as used for DBS.

[3] = Serum and intratumor drug concentration at experimental endpoint, DLD1 model; type: in vivo, mice; conditions: for concentration at 1 h / Kp at 1 h: Swiss Nu/nu, mouse, oral; for concentration at 1 h: 1h post-treatment at endpoint (day 15); for Kp at 1 h: tumor vs serum, read-out: ratio tumor vs serum; for Kp at 1 h / ratio ODC vs single drug: DLD1 model
Method: as §2

DLD1 tumors = experiment: Subcutaneous xenograft tumor growth; type: in vivo, Swiss nu/nu mice
Method: All procedures including animal use were performed in accordance with the Institutional Ethical Committee of Animal Care in Geneva and the Swiss Cantonal Veterinary Office (Authorization number GE‐136‐19). Briefly, female and male Swiss nu/nu mice aged 6–8 weeks were obtained from Charles River (Écully, France). For subcutaneous xenografts mice were inoculated in the left flank with 5x10^6 DLD1 or SW620 cells suspended in 100 µL of cell culture medium, supplemented with 1% FBS.
Drugs were administered through oral gavage based on average body weight of the males (100 µL/mouse) and females (80 µL/mouse) at various concentrations, see Tables S10 and S11.
Solution A: step (1) 30% PEG 400 + 5% propylene glycol + 0.5% Tween 80 and (2) 64.5% sterile H2O. Solution B: step (1) 10% DMSO, (2) 30% PEG 300 + 5% Tween 80 and (3) 55% sterile H2O. […] FOLFOX was administered as 6 mg/kg oxaliplatin two hours before administration of 90 mg/kg leucovorin and 50 mg/kg (DLD1) or 25 mg/kg (SW620) 5‐fluorouracil at day 1 and a repeat of 5‐fluorouracil dosing on day 2.
The Bliss independence model can be used to evaluate the drug interaction potential of a drug mixture. […] The model is based on the probability theory and requires the drug activity of each drug at the selected dose to predict the inhibition rate (IR) at additive doses.

[4] = Clinical plasma pharmacokinetics in patients, plasma concentration limit calculation; type: in vivo; conditions: average plasma concentration calculated from AUC0-24h in patients
Method: To select for clinically relevant doses, the clinically attainable drug concentration measured in the blood plasma of patients after treatment is used to calculate the concentration limit for in vitro experiments. […] The average drug concentration is calculated from the AUC0–24h and is implemented as the plasma concentration limit (PCL) which drug dose selection must remain below for in vitro experiments. If a drug is FDA approved, the AUC0–24h selected is the one corresponding to the recommended dose in clinical practice. If a drug is in clinical trials, the AUC0–24h selected is the one corresponding to the maximum tolerated dose in early stage clinical trials. Note, experiments were conducted with the most current PCL calculated from the AUC0–24h information available at the start of experiments (December 2017), see Table S4.

[5] = Pharmacokinetics, dried blood spot LC-MS/MS, mice with SW620 tumors; type: in vivo; conditions: for Tmax / AUC(0-t) / Cmax: Swiss Nu/nu, mouse, whole blood (dried blood spot), po, regorafenib 30, vemurafenib 75, GDC-0994 10 mg/kg; for AUC(0-t) / Cmax: whole blood, mean ± SD; for AUC(0-t): oral, read-out: AUC0-24h; for increase of AUC as part of the ODC vs single-drug treatment: mice bearing SW620 tumors, AUC0-24h
Method: as §1

[6] = given as part of DLD1-specific ODC
[7] = serum, as part of ODC, regorafenib 30, selumetinib 0.2, vemurafenib 75, GDC-0994 10 mg/kg, read-out: concentration serum
[8] = serum, single drug, regorafenib 30, selumetinib 0.2, vemurafenib 75, GDC-0994 10 mg/kg, read-out: concentration serum
[9] = tumor (SW620), as part of ODC, SW620 tumor, doses as E164, read-out: concentration tumor
[10] = tumor (SW620), single drug, SW620 tumor, doses as E164, read-out: concentration tumor
[11] = serum, as part of ODC, regorafenib 15, erlotinib 12.5, selumetinib 5, vemurafenib 75 mg/kg, read-out: concentration serum
[12] = serum, single drug, regorafenib 15, erlotinib 12.5, selumetinib 5, vemurafenib 75 mg/kg, read-out: concentration serum
[13] = tumor (DLD1), as part of ODC, DLD1 tumor, doses as E156, read-out: concentration tumor
[14] = tumor (DLD1), single drug, DLD1 tumor, doses as E156, read-out: concentration tumor
[15] = regorafenib 15 mg/kg, Exp 5, Day 16
[16] = regorafenib 30 mg/kg, Exp 2, Day 14
[17] = regorafenib 30 mg/kg, Exp 5, Day 16
[18] = regorafenib 50 mg/kg, Exp 3, Day 13
[19] = given as part of SW620-specific ODC
[20] = selumetinib 1 mg/kg, Exp 6, Day 18
[21] = selumetinib 5 mg/kg, Exp 5, Day 16
[22] = selumetinib 5 mg/kg, Exp 7, Day 25
[23] = selumetinib 10 mg/kg, Exp 5, Day 16
[24] = selumetinib 25 mg/kg, Exp 3, Day 13

Structure (SMILES) | Tmax [1, 6] [h] | AUC(0-t) [1, 6] [ng·h/mL] | Cmax [1, 6] [ng/mL] | Tmax ([1]; mono) [h] | AUC(0-t) ([1]; mono) [ng·h/mL] | Cmax ([1]; mono) [ng/mL] | increase of AUC as part of the ODC vs single-drug treatment [1] [x] | concentration at 1 h [2, 7] [ng/mL] | concentration at 1 h [2, 8] [ng/mL] | concentration at 1 h [2, 9] [ng/g] | concentration at 1 h [2, 10] [ng/g] | Kp at 1 h ([2]; as part of ODC) | Kp at 1 h ([2]; single drug) | concentration at 1 h [3, 11] [ng/mL] | concentration at 1 h [3, 12] [ng/mL] | concentration at 1 h [3, 13] [ng/g] | concentration at 1 h [3, 14] [ng/g] | Kp at 1 h ([3]; as part of ODC) | Kp at 1 h ([3]; single drug) | PCL (plasma concentration limit) [4] | further results
CNC(=O)c1cc(Oc2ccc(NC(=O)Nc3ccc(Cl)c(C(F)(F)F)c3)c(F)c2)ccn1 [regorafenib] | 4 | 49400 ± 2980 | 3380 ± 490 | 8 | 17500 ± 5790 | 1190 ± 690 | 2.8 | 6600 ± 2800 | 2220 ± 70 | 1820 ± 770 | 1330 ± 230 | 0.28 | 0.6 | 1830 ± 540 | 880 ± 250 | 8670 ± 5530 | 1540 ± 680 | 4.74 | 1.76 | 4.34 µM and 4.3 µM | ratio ODC vs single drug ([2]; serum): 2.97; ratio ODC vs single drug ([2]; tumor): 1.37; ratio ODC vs single drug ([3]; serum): 2.09; ratio ODC vs single drug ([3]; tumor): 5.62; % CTRL (tumor volume) (DLD1 tumors; [15]): 87 75 34 % CTRL; Volume (DLD1 tumors; [15]): 559 479 214 mm^3; % CTRL (tumor volume) (DLD1 tumors; regorafenib 15 mg/kg, Exp 7, Day 15): 96 24 38 % CTRL; % CTRL (tumor volume) (DLD1 tumors; [16]): 85 46 20 % CTRL; Volume (DLD1 tumors; [16]): 594 320 143 mm^3; % CTRL (tumor volume) (DLD1 tumors; [17]): 63 56 25 % CTRL; Volume (DLD1 tumors; [17]): 404 358 160 mm^3; % CTRL (tumor volume) (DLD1 tumors; [18]): 135 76 29 % CTRL; Volume (DLD1 tumors; [18]): 465 261 99 mm^3; Tmax [5, 19]: 4 h; AUC(0-t) [5, 19]: 22200 ± 1830 ng·h/mL; Cmax [5, 19]: 1610 ± 220 ng/mL; Tmax ([5]; mono): 4 h; AUC(0-t) ([5]; mono): 9860 ± 1930 ng·h/mL; Cmax ([5]; mono): 710 ± 260 ng/mL; increase of AUC as part of the ODC vs single-drug treatment [5]: 2.2 x
Cn1cnc2c(F)c(Nc3ccc(Br)cc3Cl)c(C(=O)NOCCO)cc21 [selumetinib] | 2 | 24800 ± 8250 | 3830 ± 1640 | 2 | 15200 ± 7590 | 1220 ± 330 | 1.6 | 280 ± 200 | 410 ± 350 | 220 ± 100 | 560 ± 90 | 0.77 | 1.39 | 3490 ± 900 | 2500 ± 1080 | 4530 ± 1950 | 1980 ± 660 | 1.3 | 0.79 | 0.60 µM and 0.6 µM | % CTRL (tumor volume) (DLD1 tumors; [20]): 74 29 12 % CTRL; Volume (DLD1 tumors; [20]): 366 142 58 mm^3; % CTRL (tumor volume) (DLD1 tumors; [21]): 37 39 20 % CTRL; Volume (DLD1 tumors; [21]): 237 234 125 mm^3; % CTRL (tumor volume) (DLD1 tumors; [22]): 67 50 25 % CTRL; Volume (DLD1 tumors; [22]): 408 223 79 mm^3; % CTRL (tumor volume) (DLD1 tumors; selumetinib 10 mg/kg, Exp 4, Day 16): 82 49 22 % CTRL; % CTRL (tumor volume) (DLD1 tumors; [23]): 33 18 8 % CTRL; Volume (DLD1 tumors; [23]): 213 117 52 mm^3; % CTRL (tumor volume) (DLD1 tumors; [24]): 49 33 13 % CTRL; Volume (DLD1 tumors; [24]): 168 112 46 mm^3; % CTRL (tumor volume) (DLD1 tumors; selumetinib 50 mg/kg, Exp 2, Day 14): 39 16 7 % CTRL; Tmax [5, 19]: 2 h; AUC(0-t) [5, 19]: 890 ± 130 ng·h/mL; Cmax [5, 19]: 230 ± 80 ng/mL; Tmax ([5]; mono): 2 h; AUC(0-t) ([5]; mono): 770 ± 140 ng·h/mL; Cmax ([5]; mono): 240 ± 80 ng/mL; increase of AUC as part of the ODC vs single-drug treatment [5]: 1.2 x
